Experimental data: paper PMC9304199, “A small molecule CFTR potentiator restores ATP‐dependent channel gating to the cystic fibrosis mutant G551D‐CFTR” (British Journal of Pharmacology, 2022)

Assays:
[1] = target: G551D‐CFTR (Homo sapiens, UniProt P13569, G551D); test: Automated planar patch-clamp whole-cell Cl− currents in HEK cells; format: cell-based; set-up: expressed in transfected cells; conditions: for EC50: G551D‐CFTR HEK cells, whole-cell currents, automated electrophysiology, 23°C, read-out: EC50 (μM) (95% CI); for Emax: HEK293, read-out: Maximal effect (%) (95% CI)
Description: For CFTR studies using automated electrophysiology and single-channel recording, we used baby hamster kidney (BHK) cells (RRID:CVCL_1915) and human embryonic kidney (HEK) 293 cells (RRID:CVCL_0045) stably expressing wild-type human CFTR and the CFTR variants F508del- and […] et al., [2002]; Xu et al., [2014]). […] HEK cells expressing CFTR variants were generated using the Flp-InTM system as described above for F508del- and G551D-CFTR-expressing FRT cells. They were cultured in Dulbecco's modified Eagle's medium (glucose, 1.5 g·L^-1; sodium pyruvate, 110 mg·L^-1) supplemented with 10% FBS (PAA Laboratories), GlutaMAXTM and hygromycin-B (150 μg·ml^-1; InvitrogenTM, Thermo Fisher Scientific) at 37°C in a humidified atmosphere with 5% CO2. Prior to study, F508del-CFTR expressed in HEK cells was trafficked to the plasma membrane by low temperature incubation (27°C for 24-72 h). The single-channel behaviour of human CFTR in excised membrane patches from different mammalian cell lines heterologously expressing CFTR is equivalent (wild-type CFTR, Chen et al., [2009]; F508del-CFTR, Bose et al., [2019]; and G551D-CFTR, J Liu, Y Wang, Z Cai, and DN Sheppard, unpublished observations). […] The continuous lines are the fit of sigmoidal concentration-response functions to mean data. […] (Figure S2D: Normality Test (Shapiro-Wilk), P = 0.124 (passed); Equal Variance Test (Brown-Forsythe), P = 0.092 (passed)). Click here for additional data file.

[2] = target: F508del‐CFTR (Homo sapiens, UniProt P13569, DEL508-508); test: Ussing chamber apical Cl− current (ICl apical) in FRT epithelia expressing F508del‐CFTR; format: cell-based; set-up: assays at Charles River Laboratories (ChanTest); conditions: for EC50: F508del‐CFTR FRT epithelia, lumacaftor (5 μM) rescued, ICl apical, 27°C, read-out: EC50 (μM) (95% CI)
Description: Ussing chamber studies to determine the concentration–response relationships of CFTR potentiators (Figure 1c–f) were performed at Charles River Laboratories (ChanTest) (Cleveland, OH, USA). For these studies, FRT cells were stably transfected with CFTR cDNAs with the F508del and G551D variants and the common polymorphism M470 (synthesised by System Biosciences, Palo Alto, CA, USA) using the Flp‐In™ system (Thermo Fisher Scientific, Waltham, MA, USA). The F508del‐CFTR cDNA contained the following differences from the canonical CFTR cDNA sequence (NCBI Accession Number NM_000492): del CTT (1521–1523) to delete F508; synonymous changes T > C (798), A > G (801), T > C (804) to remove a cryptic bacterial promoter; synonymous change T > C (1095); G > A (1408) to give M470 and was amplified using the primers 5′ […] 3′ and 5′ […] 3′. The G551D‐CFTR cDNA contained the following differences from the canonical CFTR cDNA sequence (NCBI Accession Number NM_000492): G > A (1652) to replace G551 with D551; synonymous changes T > C (798), A > G (801), T > C (804) to remove a cryptic bacterial promoter; synonymous change A > C (516); synonymous change T > C (1095); G > A (1408) to give M470 and was amplified using the primers 5′ […] 3′ and 5′ […] 3′. Using Kpn1 and Not1 restriction sites, the F508del‐ and G551D‐CFTR cDNAs were inserted into pcDNA5/FRT (Flp‐In™) (RRID:Addgene_31984). […]
To test the effects of CP‐628006 on CFTR Cl^− channels in the apical membrane of FRT epithelia, we permeabilized the basolateral membrane with amphotericin B (100 μM). After cancelling voltage offsets, we clamped transepithelial voltage at 0 mV and measured apical Cl^− current (ICl ^apical) continuously using a Physiologic Instruments VCC MC6/8 multichannel voltage/current clamp (Li et al., [2004]).

Sequence of G551D‐CFTR (P13569 whole entry G551D): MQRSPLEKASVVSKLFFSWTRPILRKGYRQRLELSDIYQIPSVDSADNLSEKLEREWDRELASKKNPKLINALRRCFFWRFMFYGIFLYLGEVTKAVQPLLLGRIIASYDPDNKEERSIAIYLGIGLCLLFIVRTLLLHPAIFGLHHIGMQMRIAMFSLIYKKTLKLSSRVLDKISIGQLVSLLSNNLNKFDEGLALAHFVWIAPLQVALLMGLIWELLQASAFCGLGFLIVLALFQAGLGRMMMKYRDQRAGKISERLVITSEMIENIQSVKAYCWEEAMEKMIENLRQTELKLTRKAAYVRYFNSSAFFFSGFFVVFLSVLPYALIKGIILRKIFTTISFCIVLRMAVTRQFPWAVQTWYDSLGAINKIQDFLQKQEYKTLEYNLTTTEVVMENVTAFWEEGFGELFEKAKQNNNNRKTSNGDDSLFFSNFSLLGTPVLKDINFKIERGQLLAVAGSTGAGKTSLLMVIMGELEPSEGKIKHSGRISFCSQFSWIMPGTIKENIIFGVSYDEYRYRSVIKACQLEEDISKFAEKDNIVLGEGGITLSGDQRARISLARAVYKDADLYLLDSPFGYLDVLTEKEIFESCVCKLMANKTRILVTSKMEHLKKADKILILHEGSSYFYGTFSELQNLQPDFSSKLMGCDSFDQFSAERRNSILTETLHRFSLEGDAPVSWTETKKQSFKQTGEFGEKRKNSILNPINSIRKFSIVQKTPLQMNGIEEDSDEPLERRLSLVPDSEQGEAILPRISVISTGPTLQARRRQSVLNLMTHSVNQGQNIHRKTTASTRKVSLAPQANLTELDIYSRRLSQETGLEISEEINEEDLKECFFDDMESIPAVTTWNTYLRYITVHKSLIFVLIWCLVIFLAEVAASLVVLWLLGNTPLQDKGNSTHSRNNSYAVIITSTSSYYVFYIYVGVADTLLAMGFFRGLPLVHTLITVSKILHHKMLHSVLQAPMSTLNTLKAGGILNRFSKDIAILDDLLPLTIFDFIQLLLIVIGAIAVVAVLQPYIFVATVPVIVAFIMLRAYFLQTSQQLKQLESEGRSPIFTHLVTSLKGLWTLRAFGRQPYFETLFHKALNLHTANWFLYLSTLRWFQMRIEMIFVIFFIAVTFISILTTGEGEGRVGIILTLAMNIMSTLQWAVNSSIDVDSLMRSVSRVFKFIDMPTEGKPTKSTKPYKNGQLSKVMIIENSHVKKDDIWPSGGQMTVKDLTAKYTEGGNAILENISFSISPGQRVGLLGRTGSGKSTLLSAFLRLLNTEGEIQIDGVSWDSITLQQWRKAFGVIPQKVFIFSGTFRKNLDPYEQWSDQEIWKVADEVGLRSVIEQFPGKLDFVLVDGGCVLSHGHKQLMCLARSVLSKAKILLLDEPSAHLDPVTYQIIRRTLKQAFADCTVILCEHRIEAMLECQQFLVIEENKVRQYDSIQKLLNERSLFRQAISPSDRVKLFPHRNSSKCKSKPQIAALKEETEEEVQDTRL
Sequence of F508del‐CFTR (P13569 with tags, fused parts or gaps DEL508-508): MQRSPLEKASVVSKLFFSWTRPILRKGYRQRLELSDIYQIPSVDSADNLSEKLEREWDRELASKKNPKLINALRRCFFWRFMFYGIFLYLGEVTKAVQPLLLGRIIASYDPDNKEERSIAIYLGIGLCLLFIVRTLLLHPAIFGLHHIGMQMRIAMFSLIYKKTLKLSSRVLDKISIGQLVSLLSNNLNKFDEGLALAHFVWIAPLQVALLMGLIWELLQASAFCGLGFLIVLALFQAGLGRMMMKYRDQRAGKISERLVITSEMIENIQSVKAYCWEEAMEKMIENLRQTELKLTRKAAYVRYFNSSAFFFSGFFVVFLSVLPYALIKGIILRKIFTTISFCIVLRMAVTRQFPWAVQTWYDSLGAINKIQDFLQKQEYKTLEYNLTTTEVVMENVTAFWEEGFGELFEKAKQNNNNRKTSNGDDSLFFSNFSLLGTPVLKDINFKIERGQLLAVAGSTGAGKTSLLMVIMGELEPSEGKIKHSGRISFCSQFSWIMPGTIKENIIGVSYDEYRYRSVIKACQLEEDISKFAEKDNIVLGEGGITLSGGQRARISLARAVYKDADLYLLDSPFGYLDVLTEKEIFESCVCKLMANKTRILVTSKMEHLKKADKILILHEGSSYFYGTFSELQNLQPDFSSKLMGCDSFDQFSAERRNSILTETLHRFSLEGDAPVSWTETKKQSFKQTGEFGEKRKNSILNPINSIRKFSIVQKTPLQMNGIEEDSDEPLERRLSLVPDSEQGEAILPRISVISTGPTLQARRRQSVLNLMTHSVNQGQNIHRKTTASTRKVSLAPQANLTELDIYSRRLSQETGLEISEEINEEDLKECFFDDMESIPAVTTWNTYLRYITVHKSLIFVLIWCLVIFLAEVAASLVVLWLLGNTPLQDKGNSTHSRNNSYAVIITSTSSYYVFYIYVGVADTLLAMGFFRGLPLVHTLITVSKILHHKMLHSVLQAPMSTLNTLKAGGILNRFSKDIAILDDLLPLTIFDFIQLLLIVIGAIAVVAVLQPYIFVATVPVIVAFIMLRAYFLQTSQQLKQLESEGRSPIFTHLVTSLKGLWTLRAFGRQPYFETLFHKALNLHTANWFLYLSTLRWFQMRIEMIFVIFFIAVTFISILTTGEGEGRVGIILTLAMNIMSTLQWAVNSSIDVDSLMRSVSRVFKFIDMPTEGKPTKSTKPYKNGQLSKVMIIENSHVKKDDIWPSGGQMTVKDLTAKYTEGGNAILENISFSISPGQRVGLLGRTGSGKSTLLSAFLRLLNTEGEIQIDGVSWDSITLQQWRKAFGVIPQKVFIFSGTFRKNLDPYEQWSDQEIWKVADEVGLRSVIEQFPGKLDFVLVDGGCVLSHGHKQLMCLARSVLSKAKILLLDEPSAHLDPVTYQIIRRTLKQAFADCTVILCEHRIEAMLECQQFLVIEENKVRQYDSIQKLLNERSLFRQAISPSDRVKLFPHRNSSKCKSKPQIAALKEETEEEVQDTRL

| SMILES | EC50 [1] [µM] | Emax [1] [%] | EC50 [2] [µM] | Emax ([2]; read-out: Maximal effect (%) (95% CI)) |
| --- | --- | --- | --- | --- |
| Cc1ncccc1CNC(=O)c1ccc2c(c1)CC[C@H]1C[C@](O)(CCC(F)(F)F)CC[C@]21Cc1ccccc1 (racemic) [CP‐628006, rac‐(4bR,7R,8aS)‐4b‐benzyl‐7‐hydroxy‐N‐((2‐methylpyridin‐3‐yl)methyl)‐7‐(3,3,3‐trifluoropropyl)‐4b,5,6,7,8,8a,9,10‐octahydrophenanthrene‐2‐carboxamide] | 5.13 | 72 | > 0.5 |  |
| CC(C)(C)c1cc(C(C)(C)C)c(NC(=O)c2c[nH]c3ccccc3c2=O)cc1O [ivacaftor, reference compound] | 0.82 | 70 | 0.002 | 103 |
